Assay [1] deals with T1, human H3 receptor (Homo sapiens, UniProt Q9Y5N1).
T1 construct: expressed in transfected cells
The assay can be described thus: In vitro H3 binding assay (3H-N-α-methyl-histamine competition binding). The conditions noted are these: membranes of CHO-K1 cells expressing human H3 receptor; 2 nM 3H-NαMH; read-out: hH3 binding IC50. The gist of the method: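 Membranes from CHO-K1 cells stably expressing human H3 (5 μg/well) incubated 1 h at room temperature with compound and 2 nM ³H-NαMH in 50 mM Tris-HCl pH 7.4, 5 mM MgCl2; non-specific binding defined with 1 μM RαMH. Bound radioactivity measured by filtration and scintillation; IC50 from seven-point curves by variable-slope sigmoidal regression.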

For assay [2], the target named is T1, human H3 receptor. The experiment in a line: In vitro H3 functional assay (cAMP response element driven luciferase reporter). The format is cell-based. The conditions noted are these: CHO(dhfr+)-cre-luc cells expressing human H3 receptor; RαMH 10 nM, forskolin 1 μM; read-out: hH3 functional IC50. How it is done:
The functional activity of compounds at the H3 receptor was determined by measuring changes in the level of intracellular cAMP using a cAMP response element driven luciferase reporter assay. The changes in luciferase expression were monitored by a luminescence plate reader, Analyst HT (MDS Analytical). Increases in intracellular cAMP were readily detected upon activation of protein kinase A by forskolin (Sigma) and suppression of this response observed with the application of the H3 receptor agonist RαMH (Sigma).
CHO(dhfr^+)-cre-luc cells stably expressing human H3 receptor were routinely grown as monolayers in Minimal Essential Medium α (MEMα) (Invitrogen) supplemented with 10% dialysed FBS (Hyclone), in 5% CO2 at 37° C. 48 hours prior to assay, cells were seeded in clear-base white walled 384-well plates (Corning) at a density of 5000 cells/well. On the day of assay, growth media was removed and replaced with […] of assay buffer (MEMα, 5 mg/ml fatty acid free BSA (Sigma)) per well. Cells were then incubated for 30 minutes at 37° C., 5% CO2. Compound was serially diluted in DMSO before being diluted 1:10 with assay buffer. 2.5 of compound diluted in assay buffer was added and cells incubated for 5 minutes at 37° C., 5% CO2. 2.5 μl of each reagent was then added in the following order: RαMH (10 nM), isobutylmethylxanthine (1-methyl-3-(2-methylpropyl)-7H-purine-2,6-dione; IBMX) (500 μM) (Sigma) and forskolin (1 μM). Cells were then incubated for 90 minutes at 37° C., 5% CO2, followed by 30 minutes at room temperature. At the end of incubation 25 μl of Steadylite reagent (Perkin Elmer) was added, plates were sealed and placed on a shaker for 5 minutes. The level of light output to determine the level of luciferase expression was then measured.
IC50 values for compounds were determined from ten point half log scale dose-response studies and represent the concentration of compound required to […] 50% inhibition of forskolin stimulated cells in the presence of RαMH alone. Curves were generated using the average of duplicate wells for each data point and analyzed using nonlinear regression of four parameter dose response.
In general terms: A reporter such as luciferase makes a cellular process visible.

T1 sequence (Q9Y5N1 whole entry): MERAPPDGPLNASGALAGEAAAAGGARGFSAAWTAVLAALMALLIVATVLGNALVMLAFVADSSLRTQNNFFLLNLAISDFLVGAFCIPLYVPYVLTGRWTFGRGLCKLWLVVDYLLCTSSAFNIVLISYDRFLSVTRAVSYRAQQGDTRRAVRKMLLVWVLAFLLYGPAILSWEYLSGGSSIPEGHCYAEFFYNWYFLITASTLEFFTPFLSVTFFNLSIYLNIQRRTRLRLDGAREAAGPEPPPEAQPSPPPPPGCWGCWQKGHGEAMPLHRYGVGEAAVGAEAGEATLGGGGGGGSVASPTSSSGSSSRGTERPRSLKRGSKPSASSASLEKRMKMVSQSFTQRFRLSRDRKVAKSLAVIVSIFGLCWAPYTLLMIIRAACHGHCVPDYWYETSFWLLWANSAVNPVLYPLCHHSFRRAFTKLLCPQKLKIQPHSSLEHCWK

Regarding `CC(C)(O)c1ccc(C(=O)NCc2ccc3c(c2)CCN(C2CCC2)CC3)cn1` [Example 239, N-((3-cyclobutyl-2,3,4,5-tetrahydro-1H-benzo[d]azepin-7-yl)methyl)-6-(2-hydroxypropan-2-yl)nicotinamide], the IC50 at human H3 receptor [1] stood at 16 nM; on human H3 receptor [2], 1 nM.
For `O=C(NCc1ccc2nccn2c1)c1ccc2c(c1)CCN(C1CCC1)CC2` [Example 81, 3-Cyclobutyl-N-(imidazo[1,2-a]pyridin-6-ylmethyl)-2,3,4,5-tetrahydro-1H-benzo[d]azepine-7-carboxamide], the values for the IC50 on human H3 receptor [1] and at human H3 receptor [2] were 0.4 nM and 0.8 nM, respectively.
Taken in the same sequence, the figures for `O=C(NCc1ccc2c(c1)CCN(C1CC(F)C1)CC2)c1ccc(N2CCCC2)nc1` (stereo not shown) [Example 242, N-((3-(3-fluorocyclobutyl)-2,3,4,5-tetrahydro-1H-benzo[d]azepin-7-yl)methyl)-6-(pyrrolidin-1-yl)nicotinamide] were 0.6 nM and 3 nM.
For `O=C(NCc1ccc2c(c1)CCN(C1CCC1)CC2)c1cnccn1` [Example 181, N-((3-cyclobutyl-2,3,4,5-tetrahydro-1H-benzo[d]azepin-7-yl)methyl)pyrazine-2-carboxamide], the half-maximal inhibitory concentration (IC50) at human H3 receptor [1] stood at 21 nM; on human H3 receptor [2], 4 nM.
In the same order, the values of `O=C(NCc1cccc(C(F)(F)F)c1)c1ccc2c(c1)CCN(C1CCC1)CC2` [Example 59, 3-Cyclobutyl-N-(3-(trifluoromethyl)benzyl)-2,3,4,5-tetrahydro-1H-benzo[d]azepine-7-carboxamide] are 6 nM and 3 nM.
In the same order, the values of `O=C(NCc1ccc(C(F)(F)F)o1)c1ccc2c(c1)CCN(C1CCC1)CC2` [Example 92, 3-cyclobutyl-N-((5-(trifluoromethyl)furan-2-yl)methyl)-2,3,4,5-tetrahydro-1H-benzo[d]azepine-7-carboxamide] are 4 nM and 1 nM.
In the same order, the values of `Cn1c(CNC(=O)c2ccc3c(c2)CCN(C2CCC2)CC3)nc2ccccc21` [Example 79, 3-Cyclobutyl-N-((1-methyl-1H-benzo[d]imidazol-2-yl)methyl)-2,3,4,5-tetrahydro-1H-benzo[d]azepine-7-carboxamide] are 6 nM and 3 nM.
For the compound `CCn1nccc1CNC(=O)c1ccc2c(c1)CCN(C1CCC1)CC2` [Example 100, 3-cyclobutyl-N-((1-ethyl-1H-pyrazol-5-yl)methyl)-2,3,4,5-tetrahydro-1H-benzo[d]azepine-7-carboxamide], the 50% inhibitory concentration (IC50) at human H3 receptor [1] was found to be 2 nM; at human H3 receptor [2], 0.5 nM.
In the same order, the values of `O=C(NCC1CCCO1)c1ccc2c(c1)CCN(C1CCC1)CC2` (stereo not shown) [Example 36, 3-cyclobutyl-N-((tetrahydrofuran-2-yl)methyl)-2,3,4,5-tetrahydro-1H-benzo[d]azepine-7-carboxamide] are 12 nM and 2 nM.
On to `O=C(NCc1ccc2[nH]ccc2c1)c1ccc2c(c1)CCN(C1CCC1)CC2` [Example 74, N-((1H-Indol-5-yl)methyl)-3-cyclobutyl-2,3,4,5-tetrahydro-1H-benzo[d]azepine-7-carboxamide], for which the half-inhibitory concentration (IC50) at human H3 receptor [1] worked out at 3 nM; on human H3 receptor [2] it was 1 nM.
Regarding `O=C(NCC1CCCCC1)c1ccc2c(c1)CCN(C1CCC1)CC2` [Example 34, 3-Cyclobutyl-N-(cyclohexylmethyl)-2,3,4,5-tetrahydro-1H-benzo[d]azepine-7-carboxamide], the IC50 at human H3 receptor [1] was determined as 26 nM; at human H3 receptor [2], 5 nM.

As a reminder, the IC50 is the concentration needed to halve the response being measured.

The values above are taken from patent US20110124626A1, “BENZAZEPINE DERIVATIVES AND THEIR USE AS HISTAMINE H3 ANTAGONISTS” (TAKEDA PHARMACEUTICAL COMPANY LIMITED, priority 2008, published 2011).
